# Patent publication US20140193827A1 (TEVA PHARMACEUTICAL INDUSTRIES, LTD., priority 2013, published 2014)
# Test system: GA-primed murine splenocytes
# Assay: ANOVA-based pattern identification method
# Format: cell-based, mouse
# Conditions: UP IN generic ONLY
# Source text: We sought to identify probes matching specific patterns of expression across experimental conditions using a technique that referred to as the ANOVA-based Pattern Identification Method.
# To carry out the analysis in a general manner, we computed the 6 p-values required to do pairwise comparisons of all 4 conditions for all probes using the ANOVA1 function in MATLAB. We then identified sets of probes matching the desired pattern. In the example above, probes were identified as being only affected by PG if their 6 pairwise comparison pvalues matched the following pattern (pGA-PG<0.05, pPG-reference standard<0.05, pPG-Medium<0.05, pGAMedium>0.05, pGA-reference standard>0.05, preference standard-Medium>0.05).
substance,measurement,setting,value
glatiramer acetate [GA],4930544L04RIK expression,,5.873
same,4933437N03RIK expression,,6.099
same,5330403O16RIK expression,,5.716
same,5730472N09RIK expression,,7.649
same,5830457O10RIK expression,,9.145
same,5930400G23RIK expression,,5.875
same,6330579M01RIK expression,,5.814
same,6430709H04RIK expression,,5.642
same,6720407G21RIK expression,,5.543
same,8030455F02RIK expression,,5.766
same,9030624J02RIK expression,,9.517
same,9130011J15RIK expression,,8.444
same,9330104G04RIK expression,,5.71
same,9330158H04RIK expression,,5.699
same,9330183F02RIK expression,,5.986
same,9430003J03RIK expression,,6.25
same,9430078K10RIK expression,,6.125
same,9430088N01RIK expression,,6.673
same,11110020P15RIK expression,,12.88
same,A4GALT expression,,5.801
same,A230005A19RIK expression,,5.83
same,A230084A06RIK expression,,5.804
same,ADAL expression,,6.367
same,ADAR expression,,8.858
same,ADPRHL2 expression,,6.783
same,AI844366 expression,,5.793
same,AKT2 expression,,5.919
same,ALOX15 expression,,5.968
same,ARFGAP2 expression,,9.429
same,ARVCF expression,,5.727
same,ATG3 expression,,5.593
same,ATP9B expression,,5.92
same,ATP13A1 expression,,9.018
same,ATPBD3 expression,,6.569
same,B930062B16RIK expression,,6.038
same,BC017612 expression,,7.394
same,BC031853 expression,,6.952
same,BC037704 expression,,7.193
same,BC040758 expression,,6.077
same,BCKDK expression,,9.485
same,BCL2L2 expression,,5.792
same,BCL2L12 expression,,6.997
same,BLCAP expression,,8.164
same,BPHL expression,,5.714
same,BTRC expression,,7.946
same,BZRPL1 expression,,6.203
same,C130040D06RIK expression,,5.711
same,C230062L16RIK expression,,6.189
same,C230092H20RIK expression,,5.902
same,C730048C13RIK expression,,5.941
same,C920004C08RIK expression,,11.38
same,CAPZB expression,,5.854
same,CAR6 expression,,5.68
same,CBARA1 expression,,7.517
same,CCL2 expression,,5.834
same,CD44 expression,,5.953
same,CD151 expression,,7.186
same,CDC42BPB expression,,7.153
same,CDCA1 expression,,5.663
same,CEBPE expression,,6.204
same,CENTD3 expression,,7.76
same,CHGA expression,,5.756
same,CHRM2 expression,,5.589
same,CLCN1 expression,,5.787
same,CLCNKB expression,,5.956
same,CLEC4A3 expression,,6.547
same,CNGA4 expression,,6.005
same,CNTLN expression,,5.647
same,COBLL1 expression,,7.08
same,COL4A1 expression,,6.209
same,COQ6 expression,,9.965
same,COQ9 expression,,8.284
same,COTL1 expression,,12.24
same,CTNNA3 expression,,5.701
same,CXCL14 expression,,5.622
same,CYGB expression,,6.119
same,D0HXS9928E expression,,9.848
same,D11WSU47E expression,,7.068
same,D130017N08RIK expression,,6.061
same,D430013G08RIK expression,,5.658
same,DACH1 expression,,5.874
same,DBF4 expression,,8.57
same,DHDH expression,,7.454
same,DNAHC17 expression,,5.838
same,DNM3 expression,,5.71
same,DUS2L expression,,6.953
same,E030016N13RIK expression,,6.199
same,E330037I15RIK expression,,6.256
same,EFCAB6 expression,,5.61
same,EG665903 expression,,5.547
same,ENAH expression,,5.919
same,EPM2A expression,,5.76
same,F830116E18RIK expression,,5.893
same,FAHD1 expression,,7.177
same,FAM123A expression,,5.862
same,FBXL15 expression,,7.284
same,FBXL21 expression,,5.656
same,FGR expression,,6.972
same,FOXE1 expression,,5.777
same,FOXP4 expression,,6.284
same,FRY expression,,5.74
same,GABRG1 expression,,5.55
same,GM628 expression,,5.746
same,GPAA1 expression,,7.442
same,"GPR106, LGR8, GPCR expression",,5.814
same,GSTK1 expression,,8.386
same,GYPA expression,,6.898
same,HIST2H2AA1 expression,,6.224
same,HMGCL expression,,7.958
same,HOXC10 expression,,6.132
same,HSD3B2 expression,,5.776
same,HTATIP2 expression,,8.787
same,INTS7 expression,,9.311
same,ISCA1 expression,,9.378
same,ITFG2 expression,,8.148
same,ITGA2B expression,,6.451
same,JPH1 expression,,5.671
same,KCNC3 expression,,5.962
same,KIF17 expression,,5.897
same,KLHDC3 expression,,7.853
same,KREMEN2 expression,,6.223
same,KRTCAP2 expression,,12.5338
same,LOC223628 expression,,5.598
same,LOC277049 expression,,5.915
same,LOC277236 expression,,5.977
same,LOC332300 expression,,6.243
same,LOC380636 expression,,5.566
same,LOC380723 expression,,5.812
same,LOC382813 expression,,5.786
same,LOC383439 expression,,5.708
same,LOC385989 expression,,5.996
same,LOC546088 expression,,5.782
same,LOC677528 expression,,9.498
same,LOC100045460 expression,,5.645
same,LOC100046781 expression,,6.089
same,LOC100047194 expression,,5.921
same,LOC100047603 expression,,6.184
same,LOC100048331 expression,,5.894
same,LY96 expression,,7.768
same,LYSMD4 expression,,6.812
same,MAGEA9 expression,,5.817
same,MAGEE2 expression,,5.808
same,MAK10 expression,,9.516
same,MAPKAPK2 expression,,10.02
same,MCPT6 expression,,5.782
same,MFSD7A expression,,5.961
same,MKNK1 expression,,6.113
same,MLANA expression,,5.769
same,MOCO5 expression,,6.424
same,MS4A7 expression,,6.506
same,MTAP1S expression,,8.992
same,MTRR expression,,6.473
same,NAPA expression,,7.994
same,NAPRT1 expression,,6.46
same,NCDN expression,,8.408
same,NEK4 expression,,5.969
same,NFE2L1 expression,,9.753
same,NFKB1 expression,,11.57
same,NRXN1 expression,,5.957
same,NSF expression,,9.95
same,OLFR228 expression,,5.655
same,OLFR312 expression,,5.726
same,OLFR506 expression,,5.636
same,OLFR519 expression,,5.669
same,OLFR907 expression,,5.644
same,OLFR1155 expression,,5.789
same,PALLD expression,,5.641
same,PALM expression,,6.421
same,PCBD2 expression,,10.32
same,PCDHAC1 expression,,5.69
same,PCOLN3 expression,,7.171
same,PDGFB expression,,6.243
same,PEF1 expression,,9.307
same,PKIA expression,,6.356
same,PKIB expression,,5.803
same,PLD1 expression,,5.927
same,PRDX2 expression,,11.61
same,PRPF3 expression,,10.04
same,PSCD2 expression,,6.134
same,PSG22 expression,,5.693
same,PTPRF expression,,5.709
same,R74862 expression,,6.215
same,RALGPS2 expression,,8.862
same,RASAL2 expression,,6.006
same,RBPMS expression,,6.068
same,REXO1 expression,,6.854
same,RHOF expression,,9.948
same,RHOT1 expression,,9.777
same,RNF40 expression,,6.148
same,RNF183 expression,,5.994
same,RPUSD3 expression,,6.756
same,RSC1A1 expression,,7.697
same,SAMD10 expression,,6.984
same,SARDH expression,,5.837
same,SCAVENGER RECEPTOR expression,,6.161
same,SCN1B expression,,5.97
same,SFRS2IP expression,,9.233
same,SGSM3 expression,,7.217
same,SLC7A8 expression,,6.268
same,SLC13A5 expression,,5.704
same,SLC22A21 expression,,5.775
same,SLC26A6 expression,,6.454
same,SMG7 expression,,9.655
same,SNCA expression,,5.875
same,SOX7 expression,,6.163
same,SPEN expression,,6.891
same,SPIN2 expression,,6.355
same,SYMPK expression,,8.402
same,SYN1 expression,,5.985
same,TAF3 expression,,7.199
same,TCEAL5 expression,,5.768
same,TCF7L2 expression,,5.717
same,TFIP11 expression,,8.095
same,TFRC expression,,9.789
same,TG737RPW expression,,6.301
same,THOC1 expression,,8.813
same,TJAP1 expression,,8.168
same,TMEM43 expression,,9.133
same,TNXB expression,,5.703
same,TRABD expression,,8.509
same,TRIM2 expression,,5.778
same,TRIM15 expression,,5.62
same,TRPV4 expression,,5.895
same,TRUB1 expression,,8.23
same,TSNAXIP1 expression,,5.811
same,TTC4 expression,,8.309
same,TTC15 expression,,7.191
same,UACA expression,,6.1
same,UAP1 expression,,8.168
same,UBE2A expression,,7.652
same,UBE2E2 expression,,6.42
same,UGP2 expression,,7.767
same,USP10 expression,,6.432
same,USP36 expression,,8.5
same,V1RC23 expression,,5.692
same,VGLL2 expression,,5.853
same,WIZ expression,,7.206
same,WNK2 expression,,5.719
same,XPO5 expression,,7.592
same,ZBTB6 expression,,6.029
same,ZEB2 expression,,5.602
same,ZFP162 expression,,7.652
same,ZFP239 expression,,7.228
same,ZFP563 expression,,5.809
same,ZFP748 expression,,5.815
same,ZMAT3 expression,,7.615
same,ZMIZ1 expression,,7.099
same,control_ILMN_1378661 expression,,5.718
same,control_ILMN_1378677 expression,,5.994
same,control_ILMN_1378911 expression,,5.7
same,AMBRA1 expression,first AMBRA1 line (r790),5.749
same,CAMK1 expression,first CAMK1 line (r746),6.416
same,AMBRA1 expression,second AMBRA1 line (r797),8.755
same,CAMK1 expression,second CAMK1 line (r762),5.514
